Laboratory results: US6914045B2, “Glycopeptide antibiotics” (Wyeth Holdings Corporation, priority 2001, dated 2005)
In brackets after ≈: the same amount, converted by molar mass.

Legend:
Test in all cases: in vitro antibacterial evaluation, MIC by broth dilution
Type in all cases: cell-based
Enterococcus sp. = details: broth dilution, 18 hours at 35° C.
Experimental: (§1) Methods for in vitro Antibacterial Evaluation (Table 1)
(§2) The minimum inhibitory concentration (MIC), the lowest concentration of the antibiotic which inhibits growth of the test organism, is determined by the broth dilution method using Muller-Hinton II […] (Baltimore Biological Laboratories) following the recommendations of the National Committee for Clinical Laboratory Standards [Methods for dilution antimicrobial susceptibility tests for bacteria that grow aerobically, approved standard M7-A2, National Committee for Clinical Laboratory Standards, Villanova, Pa.].
(§3) An inoculum level of 5×10^5 CFU/mL, and a range of antibiotic concentrations (64-0.06 μg/mL) is used. […] The test organisms include a spectrum of Gram-positive bacteria comprised of Staphylococcus sp., Streptococcus sp. and Enterococcus sp. These organisms include recent clinical isolates that are resistant to methicillin, penicillin and/or vancomycin.

Staphylococcus sp. = details: broth dilution, 18 hours at 35° C.; for MIC Staphylococcus aureus (GC 1131): strain GC 1131
Experimental: as §1, §2, §3

Streptococcus sp. = details: broth dilution, 18 hours at 35° C.
Experimental: as §1, §2, §3

Escherichia coli = details: 18 hours at 35° C.

MIC Enterococcus avium (GC 4558) (Enterococcus sp.): 1 µg/mL (≈ 0.713 µM)
MIC Enterococcus faecalis (ATCC 29212) (Enterococcus sp.): 1 µg/mL (≈ 0.713 µM)
MIC Enterococcus faecalis (GC 2242) (Enterococcus sp.): 1 µg/mL (≈ 0.713 µM)
MIC Enterococcus faecalis (GC 2691) (Enterococcus sp.): 1 µg/mL (≈ 0.713 µM)
MIC Enterococcus faecalis (GC 3059) (Enterococcus sp.): 1 µg/mL (≈ 0.713 µM)
MIC Enterococcus faecalis (GC 4552) (Enterococcus sp.): 1 µg/mL (≈ 0.713 µM)
MIC Enterococcus faecalis (GC 4553) (Enterococcus sp.): 1 µg/mL (≈ 0.713 µM)
MIC Enterococcus faecalis (GC 4554) (Enterococcus sp.): 1 µg/mL (≈ 0.713 µM)
MIC Enterococcus faecalis (GC 6189) (Enterococcus sp.): 1 µg/mL (≈ 0.713 µM)
MIC Enterococcus faecium (GC 2243) (Enterococcus sp.): 1 µg/mL (≈ 0.713 µM)
MIC Enterococcus faecium (GC 4556) (Enterococcus sp.): 1 µg/mL (≈ 0.713 µM)
MIC Enterococcus faecium (GC 4557) (Enterococcus sp.): 1 µg/mL (≈ 0.713 µM)
MIC Enterococcus faecalis (ATCC 29212) (Enterococcus sp.; inoculum 5×10^5 CFU/mL, strain ATCC 29212): 1 µg/mL (≈ 0.713 µM)
MIC Enterococcus faecalis (GC 2242) (Enterococcus sp.; inoculum 5×10^5 CFU/mL, strain GC 2242): 1 µg/mL (≈ 0.713 µM)
MIC Enterococcus faecium (GC 2243) (Enterococcus sp.; inoculum 5×10^5 CFU/mL, strain GC 2243): 1 µg/mL (≈ 0.713 µM)
MIC Enterococcus faecalis (GC 2691) (Enterococcus sp.; inoculum 5×10^5 CFU/mL, strain GC 2691): 1 µg/mL (≈ 0.713 µM)
MIC Enterococcus faecalis (GC 3059) (Enterococcus sp.; inoculum 5×10^5 CFU/mL, strain GC 3059): 1 µg/mL (≈ 0.713 µM)
MIC Enterococcus faecalis (GC 4552) (Enterococcus sp.; inoculum 5×10^5 CFU/mL, strain GC 4552): 1 µg/mL (≈ 0.713 µM)
MIC Enterococcus faecalis (GC 4553) (Enterococcus sp.; inoculum 5×10^5 CFU/mL, strain GC 4553): 1 µg/mL (≈ 0.713 µM)
MIC Enterococcus faecalis (GC 4554) (Enterococcus sp.; inoculum 5×10^5 CFU/mL, strain GC 4554): 1 µg/mL (≈ 0.713 µM)
MIC Enterococcus faecium (GC 4556) (Enterococcus sp.; inoculum 5×10^5 CFU/mL, strain GC 4556): 1 µg/mL (≈ 0.713 µM)
MIC Enterococcus faecium (GC 4557) (Enterococcus sp.; inoculum 5×10^5 CFU/mL, strain GC 4557): 1 µg/mL (≈ 0.713 µM)
MIC Enterococcus avium (GC 4558) (Enterococcus sp.; inoculum 5×10^5 CFU/mL, strain GC 4558): 1 µg/mL (≈ 0.713 µM)
MIC Enterococcus faecalis (GC 6189) (Enterococcus sp.; inoculum 5×10^5 CFU/mL, strain GC 6189): 1 µg/mL (≈ 0.713 µM)
MIC Staphylococcus aureus (GC 1131) (Staphylococcus sp.; inoculum 5×10^5 CFU/mL): 1 µg/mL (≈ 0.713 µM)
MIC Staphylococcus aureus (ATCC 29213) (Staphylococcus sp.; strain ATCC 29213): 0.5 µg/mL (≈ 0.356 µM)
MIC Staphylococcus aureus (GC 1131) (Staphylococcus sp.): 1 µg/mL (≈ 0.713 µM)
MIC Staphylococcus aureus (GC 3051) (Staphylococcus sp.; strain GC 3051): 0.5 µg/mL (≈ 0.356 µM)
MIC Staphylococcus aureus (GC 3053) (Staphylococcus sp.; strain GC 3053): 0.5 µg/mL (≈ 0.356 µM)
MIC Staphylococcus aureus (GC 4541) (Staphylococcus sp.; strain GC 4541): 0.5 µg/mL (≈ 0.356 µM)
MIC Staphylococcus aureus (GC 4542) (Staphylococcus sp.; strain GC 4542): 0.25 µg/mL (≈ 0.178 µM)
MIC Staphylococcus aureus-SMITH (GC 4543) (Staphylococcus sp.; strain GC 4543): 0.5 µg/mL (≈ 0.356 µM)
MIC Staphylococcus aureus (GC 4544) (Staphylococcus sp.; strain GC 4544): 0.5 µg/mL (≈ 0.356 µM)
MIC Staphylococcus aureus (GC 4545) (Staphylococcus sp.; strain GC 4545): 0.5 µg/mL (≈ 0.356 µM)
MIC Coagulase Negative Staphylococcus (GC 4547) (Staphylococcus sp.; strain GC 4547): 1 µg/mL (≈ 0.713 µM)
MIC Coagulase Negative Staphylococcus (GC 4548) (Staphylococcus sp.; strain GC 4548): <0.12 µg/mL
MIC Coagulase Negative Staphylococcus (GC 4549) (Staphylococcus sp.; strain GC 4549): 0.5 µg/mL (≈ 0.356 µM)
MIC Coagulase Negative Staphylococcus (GC 4551) (Staphylococcus sp.; strain GC 4551): 0.5 µg/mL (≈ 0.356 µM)
MIC Streptococcus agalactiae (GC 4564) (Streptococcus sp.): <0.12 µg/mL
MIC Streptococcus pneumoniae (ATCC 6301) (Streptococcus sp.): <0.12 µg/mL
MIC Streptococcus pneumoniae (GC 1894) (Streptococcus sp.): <0.12 µg/mL
MIC Streptococcus pneumoniae (GC 4565) (Streptococcus sp.): <0.12 µg/mL
MIC Streptococcus pyogenes (GC 4563) (Streptococcus sp.): <0.12 µg/mL
MIC Streptococcus pneumoniae (ATCC 6301) (Streptococcus sp.; inoculum 5×10^5 CFU/mL, strain ATCC 6301): <0.12 µg/mL
MIC Streptococcus pneumoniae (GC 1894) (Streptococcus sp.; inoculum 5×10^5 CFU/mL, strain GC 1894): <0.12 µg/mL
MIC Streptococcus pyogenes (GC 4563) (Streptococcus sp.; inoculum 5×10^5 CFU/mL, strain GC 4563): <0.12 µg/mL
MIC Streptococcus agalactiae (GC 4564) (Streptococcus sp.; inoculum 5×10^5 CFU/mL, strain GC 4564): <0.12 µg/mL
MIC Streptococcus pneumoniae (GC 4565) (Streptococcus sp.; inoculum 5×10^5 CFU/mL, strain GC 4565): <0.12 µg/mL
MIC Escherichia coli (ATCC 25922) (Escherichia coli): 32 µg/mL (≈ 22.8 µM)
MIC Escherichia coli (GC 4559) (Escherichia coli): 32 µg/mL (≈ 22.8 µM)
MIC Escherichia coli (GC 4560) (Escherichia coli): 1 µg/mL (≈ 0.713 µM)
SMILES: N=C1NCC(C(O)C2NC(=O)C(Cc3ccc(OC4OC(CO)C(OC5OC6COC(CCc7ccccc7)OC6C(O)C5O)C(O)C4O)cc3)NC(=O)C(CC3CCCCC3)NC(=O)CNC(=O)C(CO)NC(=O)C(C(O)C3CNC(=N)N3C3OC(CO)C(O)C(O)C3O)NC2=O)N1 (stereo not shown) [Example 198]
MIC Staphylococcus haemolyticus (GC 4546) (Staphylococcus sp.; strain GC 4546): 0.5 µg/mL (≈ 0.356 µM)
